# Measured values published in paper PMC8296573, “Synthesis and Biological Evaluation of Fingolimod Derivatives as Antibacterial Agents” (ACS Omega, 2021).
# Where two headings read alike, the source gives them in different places.
# Tests used:
# S. aureus ATCC 25923 [1] = assay: Antibacterial activity, post-exposure on preformed 18-h-old biofilms; format: cell-based, Staphylococcus aureus; settings: ± SD; for inhibition at 25 µM / inhibition at 50 µM / inhibition at 100 µM / inhibition at 200 µM: Staphylococcus aureus; for inhibition at 25 µM: ATCC25923, 25 µM; for inhibition at 50 µM: ATCC25923, 50 µM; for inhibition at 100 µM: ATCC25923, 100 µM; for inhibition at 200 µM: ATCC25923, 200 µM
# Experimental: For the post-exposure experiment, bacteria were grown with no compounds in the same conditions for 18 h, after which the media was changed, and compounds were added on the preformed biofilms. The plates were then incubated in the same conditions for an additional 24 h before proceeding to the staining assays.
# (§1) The resazurin staining was performed according to the protocol previously optimized with a few modifications.[46] Briefly, the planktonic solution was first transferred into a new 96-well plate and the OD of the planktonic solution was measured using a Varioskan LUX Multimode microplate reader (Thermo Scientific, Vantaa, Finland). Then, 10 μL of a 400 μM resazurin (R7017, Sigma-Aldrich, St. Louis, MO) diluted in phosphate-buffered saline (PBS) (Thermo Fisher Scientific, MA) was added to the wells (for a final resazurin concentration of 20 μM). The plate was incubated in the dark with shaking (220 rpm) for about 3–10 min at room temperature with S. aureus and A. baumannii (until the bacteria controls turned pink) or for 20 min at 37 °C with P. aeruginosa. Fluorescence was measured at λex = 560 nm and λem = 590 nm using the top optics of the Varioskan LUX Multimode microplate reader. The planktonic plate was then discarded. The original challenge plate containing the biofilms was washed once with PBS, and 200 μL of a 20 μM resazurin solution was added to the wells. The plate was incubated in the dark at 37 °C with shaking (220 rpm) for 30 min with S. aureus, 60 min with A. baumannii, and 90 min with P. aeruginosa. Fluorescence was measured as described for the planktonic solution. The biofilms were next treated with crystal violet staining.
# (§2) After removing the resazurin solution from the plate, biofilms were fixed with ethanol 100% for 15 min at room temperature. Ethanol was then removed, and the biofilms were left to air-dry completely at RT. Crystal violet, diluted to 1:100 in deionized water from the 2.3% commercial solution (HT90132, Sigma-Aldrich, St. Louis, MO), was added to the wells and, after a 5 min incubation with the dye, the biofilms were washed twice with deionized water and left to air-dry for about 10 min. The dye was solubilized in ethanol 100% for 1 h, and absorbance was measured at 595 nm using a Multiskan Sky microplate spectrophotometer (Thermo Scientific, Vantaa, Finland).
# S. aureus ATCC 25923 [2] = assay: Antibacterial activity, pre-exposure (planktonic cells and biofilm formation); format: cell-based, Staphylococcus aureus; settings: for MIC / inhibition at 5 µM / inhibition at 10 µM / inhibition at 15 µM / inhibition at 25 µM: Staphylococcus aureus, ATCC25923; for inhibition at 5 µM / inhibition at 10 µM / inhibition at 15 µM / inhibition at 25 µM / Average inhibition %, biofilms viability / Average inhibition %, planktonic cells viability: pre-exposure, ± SD
# Experimental: (§3) The antimicrobial activity was assessed in a similar way for the initial screening and the dose–response evaluation against different bacterial strains. With the exception of the post-exposure experiment, the compounds were added to the wells along with the bacteria to test the ability of compounds to prevent bacterial growth and biofilm formation (pre-exposure). The compounds were diluted in DMSO and plated directly in 96-well plates before adding the bacterial culture, and plates were incubated for 18 h under aerobic conditions at 37 °C with shaking (220 rpm). The antibacterial activity of the compounds was assessed on planktonic cells and biofilms separately using two different measurements for each: optical density (turbidity) and resazurin reduction (viability) on planktonic cells and resazurin followed by a crystal violet staining assay (total biomass) on biofilms, as described in the following sections.
# as §1, §2
# A. baumannii NCTC 13423 = assay: Antibacterial activity, pre-exposure; format: cell-based, Acinetobacter baumannii; settings: for Average inhibition %, biofilms viability / Average inhibition %, planktonic cells viability / inhibition at 10 µM / inhibition at 15 µM / inhibition at 25 µM / inhibition at 50 µM: A. baumannii NCTC 13423, pre-exposure, ± SD; for inhibition at 10 µM / inhibition at 15 µM / inhibition at 25 µM / inhibition at 50 µM / MIC: Acinetobacter baumannii, NCTC13423
# Experimental: as §3, §1, §2
# P. aeruginosa ATCC 9027 = assay: Antibacterial activity, pre-exposure; format: cell-based, Pseudomonas aeruginosa; settings: for Average inhibition %, biofilms viability / Average inhibition %, planktonic cells viability / inhibition at 50 µM / inhibition at 100 µM / inhibition at 150 µM / inhibition at 200 µM: P. aeruginosa ATCC 9027, pre-exposure, ± SD; for MIC / inhibition at 50 µM / inhibition at 100 µM / inhibition at 150 µM / inhibition at 200 µM: Pseudomonas aeruginosa; for inhibition at 50 µM / inhibition at 100 µM / inhibition at 150 µM / inhibition at 200 µM: ATCC9027
# Experimental: as §3, §1, §2
# [3] = read-out: Average inhibition %, biofilms biomass
# [4] = read-out: Average inhibition %, planktonic cells turbidity
# [5] = 10 µM, read-out: Average inhibition %, biofilms biomass
# [6] = 10 µM, read-out: Average inhibition %, planktonic cells turbidity
# [7] = 15 µM, read-out: Average inhibition %, biofilms biomass
# [8] = 15 µM, read-out: Average inhibition %, planktonic cells turbidity
# [9] = 25 µM, read-out: Average inhibition %, biofilms biomass
# [10] = 25 µM, read-out: Average inhibition %, planktonic cells turbidity
# [11] = 50 µM, read-out: Average inhibition %, biofilms biomass
# [12] = 50 µM, read-out: Average inhibition %, planktonic cells turbidity
smiles,measurement,setting,value
"CCCCCCCCc1cccc(CCC(N)(CO)CO)c1 [Compound 43, 2-Amino-2-(3-octylphenethyl)propane-1,3-diol]","Average inhibition %, biofilms viability",S. aureus ATCC 25923 [1]; 25 µM,14.4 ± 14%
same,"Average inhibition %, planktonic cells viability",S. aureus ATCC 25923 [1]; 25 µM,0 ± 0%
same,"Average inhibition %, biofilms viability",S. aureus ATCC 25923 [1]; 50 µM,23.1 ± 5.1%
same,"Average inhibition %, planktonic cells viability",S. aureus ATCC 25923 [1]; 50 µM,12.8 ± 18.3%
same,"Average inhibition %, biofilms viability",S. aureus ATCC 25923 [1]; 100 µM,35.4 ± 15.6%
same,"Average inhibition %, planktonic cells viability",S. aureus ATCC 25923 [1]; 100 µM,61.4 ± 27.6%
same,"Average inhibition %, biofilms viability",S. aureus ATCC 25923 [1]; 200 µM,75.7 ± 18.5%
same,"Average inhibition %, planktonic cells viability",S. aureus ATCC 25923 [1]; 200 µM,98 ± 3.3%
same,inhibition at 25 µM,S. aureus ATCC 25923 [1]; [3],38.4 ± 9.2%
same,inhibition at 25 µM,S. aureus ATCC 25923 [1]; [4],6.1 ± 8%
same,inhibition at 50 µM,S. aureus ATCC 25923 [1]; [3],50.1 ± 4.6%
same,inhibition at 50 µM,S. aureus ATCC 25923 [1]; [4],33.5 ± 18.7%
same,inhibition at 100 µM,S. aureus ATCC 25923 [1]; [3],64.7 ± 9.1%
same,inhibition at 100 µM,S. aureus ATCC 25923 [1]; [4],48.9 ± 21.5%
same,inhibition at 200 µM,S. aureus ATCC 25923 [1]; [3],79.9 ± 12%
same,inhibition at 200 µM,S. aureus ATCC 25923 [1]; [4],79.1 ± 6.3%
same,MIC,"S. aureus ATCC 25923 [2]; lowest concentration with no visible growth (>90% inhibition of turbidity and viability of planktonic cells), 18 h, read-out: MIC S. aureus ATCC 25923",15 to 25 µM
same,inhibition at 5 µM,"S. aureus ATCC 25923 [2]; 5 µM, read-out: Average inhibition %, biofilms biomass",33.6 ± 16%
same,inhibition at 5 µM,"S. aureus ATCC 25923 [2]; 5 µM, read-out: Average inhibition %, planktonic cells turbidity",25.6 ± 36.8%
same,inhibition at 10 µM,S. aureus ATCC 25923 [2]; [5],29.2 ± 14.5%
same,inhibition at 10 µM,S. aureus ATCC 25923 [2]; [6],36.2 ± 26.1%
same,inhibition at 15 µM,S. aureus ATCC 25923 [2]; [7],66.4 ± 27.2%
same,inhibition at 15 µM,S. aureus ATCC 25923 [2]; [8],61.4 ± 37.8%
same,inhibition at 25 µM,S. aureus ATCC 25923 [2]; [9],92.2 ± 6.9%
same,inhibition at 25 µM,S. aureus ATCC 25923 [2]; [10],98.9 ± 0.6%
same,MIC,S. aureus ATCC 25923 [2]; read-out: MIC (S. aureus),15 to 25 µM
same,"Average inhibition %, biofilms viability",S. aureus ATCC 25923 [2]; 5 µM,17.4 ± 8.1%
same,"Average inhibition %, planktonic cells viability",S. aureus ATCC 25923 [2]; 5 µM,12.3 ± 21.4%
same,"Average inhibition %, biofilms viability",S. aureus ATCC 25923 [2]; 10 µM,29.1 ± 5.4%
same,"Average inhibition %, planktonic cells viability",S. aureus ATCC 25923 [2]; 10 µM,14.8 ± 15.3%
same,"Average inhibition %, biofilms viability",S. aureus ATCC 25923 [2]; 15 µM,52.5 ± 43.2%
same,"Average inhibition %, planktonic cells viability",S. aureus ATCC 25923 [2]; 15 µM,36.1 ± 55.2%
same,"Average inhibition %, biofilms viability",S. aureus ATCC 25923 [2]; 25 µM,99.7 ± 0%
same,"Average inhibition %, planktonic cells viability",S. aureus ATCC 25923 [2]; 25 µM,99.9 ± 0.2%
same,"Average inhibition %, biofilms viability",A. baumannii NCTC 13423; 10 µM,0.2 ± 0.4%
same,"Average inhibition %, planktonic cells viability",A. baumannii NCTC 13423; 10 µM,5.5 ± 0.6%
same,"Average inhibition %, biofilms viability",A. baumannii NCTC 13423; 15 µM,99.2 ± 1.1%
same,"Average inhibition %, planktonic cells viability",A. baumannii NCTC 13423; 15 µM,99.8 ± 0.1%
same,"Average inhibition %, biofilms viability",A. baumannii NCTC 13423; 25 µM,100 ± 1.1%
same,"Average inhibition %, planktonic cells viability",A. baumannii NCTC 13423; 25 µM,99.8 ± 0.2%
same,"Average inhibition %, biofilms viability",A. baumannii NCTC 13423; 50 µM,98.7 ± 2.5%
same,"Average inhibition %, planktonic cells viability",A. baumannii NCTC 13423; 50 µM,99.8 ± 0.1%
same,inhibition at 10 µM,A. baumannii NCTC 13423; [5],0.6 ± 1%
same,inhibition at 10 µM,A. baumannii NCTC 13423; [6],0%
same,inhibition at 15 µM,A. baumannii NCTC 13423; [7],76.9 ± 3.5%
same,inhibition at 15 µM,A. baumannii NCTC 13423; [8],99.1 ± 1.1%
same,inhibition at 25 µM,A. baumannii NCTC 13423; [9],81.7 ± 1%
same,inhibition at 25 µM,A. baumannii NCTC 13423; [10],99.1 ± 1%
same,inhibition at 50 µM,A. baumannii NCTC 13423; [11],79 ± 3.8%
same,inhibition at 50 µM,A. baumannii NCTC 13423; [12],98.3 ± 0.9%
same,MIC,"A. baumannii NCTC 13423; pre-exposure, Inactive = no activity up to 50 μM, > = some inhibition but no MIC reached, read-out: MIC A. baumannii NCTC 13423",15 µM
same,MIC,"A. baumannii NCTC 13423; supplementary molecular formula strings sheet, read-out: MIC (A. baumannii)",15 µM
same,"Average inhibition %, biofilms viability",P. aeruginosa ATCC 9027; 50 µM,53.1 ± 41.1%
same,"Average inhibition %, planktonic cells viability",P. aeruginosa ATCC 9027; 50 µM,98.1 ± 0.5%
same,"Average inhibition %, biofilms viability",P. aeruginosa ATCC 9027; 100 µM,99.2 ± 2%
same,"Average inhibition %, planktonic cells viability",P. aeruginosa ATCC 9027; 100 µM,99 ± 1.3%
same,"Average inhibition %, biofilms viability",P. aeruginosa ATCC 9027; 150 µM,99.9 ± 0.9%
same,"Average inhibition %, planktonic cells viability",P. aeruginosa ATCC 9027; 150 µM,99.4 ± 0.7%
same,"Average inhibition %, biofilms viability",P. aeruginosa ATCC 9027; 200 µM,100.3 ± 0.5%
same,"Average inhibition %, planktonic cells viability",P. aeruginosa ATCC 9027; 200 µM,99.9 ± 0.1%
same,MIC,"P. aeruginosa ATCC 9027; ATCC9027, pre-exposure, Inactive = no activity up to 200 μM, > = some inhibition but no MIC reached, read-out: MIC P. aeruginosa ATCC 9027",50 to 100 µM
same,MIC,"P. aeruginosa ATCC 9027; ATCC9027, supplementary molecular formula strings sheet, read-out: MIC (P. aeruginosa)",50 to 100 µM
same,inhibition at 50 µM,P. aeruginosa ATCC 9027; [11],52.1 ± 19.8%
same,inhibition at 50 µM,P. aeruginosa ATCC 9027; [12],94.5 ± 0.8%
same,inhibition at 100 µM,"P. aeruginosa ATCC 9027; 100 µM, read-out: Average inhibition %, biofilms biomass",82.4 ± 25.2%
same,inhibition at 100 µM,"P. aeruginosa ATCC 9027; 100 µM, read-out: Average inhibition %, planktonic cells turbidity",97.2 ± 2.5%
same,inhibition at 150 µM,"P. aeruginosa ATCC 9027; 150 µM, read-out: Average inhibition %, biofilms biomass",89.4 ± 13.3%
same,inhibition at 150 µM,"P. aeruginosa ATCC 9027; 150 µM, read-out: Average inhibition %, planktonic cells turbidity",96.9 ± 1.2%
same,inhibition at 200 µM,"P. aeruginosa ATCC 9027; 200 µM, read-out: Average inhibition %, biofilms biomass",94.3 ± 1.4%
same,inhibition at 200 µM,"P. aeruginosa ATCC 9027; 200 µM, read-out: Average inhibition %, planktonic cells turbidity",97.5 ± 0.3%
